# Measurements: patent US20210317134A1, “UBIQUITIN-SPECIFIC-PROCESSING PROTEASE 7 (USP7) MODULATORS AND USES THEREOF” (RAPT THERAPEUTICS, INC., priority 2019, published 2021)
# Target: USP7 (Homo sapiens, UniProt Q93009)
# Test: USP7 inhibitory potency (Table 1)
# Type: biochemical
# Chain of USP7 (Q93009 whole entry): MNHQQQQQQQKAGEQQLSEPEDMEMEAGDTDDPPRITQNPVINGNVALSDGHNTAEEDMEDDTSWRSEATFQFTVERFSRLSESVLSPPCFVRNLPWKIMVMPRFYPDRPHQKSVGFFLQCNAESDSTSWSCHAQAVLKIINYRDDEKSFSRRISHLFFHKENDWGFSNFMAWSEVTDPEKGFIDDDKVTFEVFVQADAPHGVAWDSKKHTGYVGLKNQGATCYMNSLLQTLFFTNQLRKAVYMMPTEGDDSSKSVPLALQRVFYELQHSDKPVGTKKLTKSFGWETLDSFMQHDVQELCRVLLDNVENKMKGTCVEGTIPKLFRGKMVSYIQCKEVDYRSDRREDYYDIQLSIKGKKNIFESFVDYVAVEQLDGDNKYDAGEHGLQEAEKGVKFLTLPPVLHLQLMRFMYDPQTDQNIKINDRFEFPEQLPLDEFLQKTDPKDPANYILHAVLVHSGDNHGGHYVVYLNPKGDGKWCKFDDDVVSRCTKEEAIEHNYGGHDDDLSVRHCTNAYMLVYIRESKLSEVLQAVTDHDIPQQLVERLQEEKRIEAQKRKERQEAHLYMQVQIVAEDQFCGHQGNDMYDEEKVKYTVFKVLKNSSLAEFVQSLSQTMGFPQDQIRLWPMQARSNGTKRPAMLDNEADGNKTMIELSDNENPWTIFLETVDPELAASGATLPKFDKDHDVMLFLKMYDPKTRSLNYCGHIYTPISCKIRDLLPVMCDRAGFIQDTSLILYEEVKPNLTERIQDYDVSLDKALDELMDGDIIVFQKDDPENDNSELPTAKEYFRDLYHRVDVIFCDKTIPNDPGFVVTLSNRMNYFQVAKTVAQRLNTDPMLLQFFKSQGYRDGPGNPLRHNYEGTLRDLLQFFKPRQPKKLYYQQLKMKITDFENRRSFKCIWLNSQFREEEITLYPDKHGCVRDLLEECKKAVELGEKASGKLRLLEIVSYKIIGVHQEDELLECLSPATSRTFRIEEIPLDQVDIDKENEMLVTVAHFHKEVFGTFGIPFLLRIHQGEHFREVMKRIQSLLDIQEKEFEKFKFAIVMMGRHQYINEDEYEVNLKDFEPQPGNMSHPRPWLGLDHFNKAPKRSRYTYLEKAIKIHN
row,IC50,SMILES
1,1 to 10 µM,"O=C(C1Cc2cc(Cl)cc(-c3ccnc4[nH]ccc34)c2O1)N1CCN([C@H]2CC[C@H](c3ccccc3)CC2)CC1 (stereo partly drawn) [(5-chloro-7-(1H-pyrrolo[2,3-b]pyridin-4-yl)-2,3-dihydrobenzofuran-2-yl)(4-((1s,4r)-4-phenylcyclohexyl)piperazin-1-yl)methanone]"
2,1 to 10 µM,"O=C(C1Cc2cc(Cl)cc(-c3ccnc4[nH]ccc34)c2O1)N1CCN([C@H]2CC[C@@H](c3ccccc3)CC2)CC1 (stereo partly drawn) [(5-chloro-7-(1H-pyrrolo[2,3-b]pyridin-4-yl)-2,3-dihydrobenzofuran-2-yl)(4-((1s,4s)-4-phenylcyclohexyl)piperazin-1-yl)methanone]"
3,1 to 10 µM,"CN(C)C1CCN(C(=O)C2Cc3cc(Cl)cc(-c4ccnc5[nH]ccc45)c3O2)CC1 (stereo not drawn) [(5-chloro-7-(1H-pyrrolo[2,3-b]pyridin-4-yl)-2,3-dihydrobenzofuran-2-yl)(4-(dimethylamino)piperidin-1-yl)methanone]"
4,10 to 30 µM,"O=C(C1Cc2cc(Cl)cc(-c3ccnc4[nH]ccc34)c2O1)N1CCN(C2CCNCC2)CC1 (stereo not drawn) [(5-chloro-7-(1H-pyrrolo[2,3-b]pyridin-4-yl)-2,3-dihydrobenzofuran-2-yl)(4-(piperidin-4-yl)piperazin-1-yl)methanone]"
5,1 to 10 µM,"O=C(C1Cc2cc(Cl)cc(-c3ccnc4[nH]ccc34)c2O1)N1CCN(c2cccnc2)CC1 (stereo not drawn) [(5-chloro-7-(1H-pyrrolo[2,3-b]pyridin-4-yl)-2,3-dihydrobenzofuran-2-yl)(4-(pyridin-3-yl)piperazin-1-yl)methanone]"
6,1 to 10 µM,"O=C(C1Cc2cc(Cl)cc(-c3ccnc4[nH]ccc34)c2O1)N1CCN(c2ccncc2)CC1 (stereo not drawn) [(5-chloro-7-(1H-pyrrolo[2,3-b]pyridin-4-yl)-2,3-dihydrobenzofuran-2-yl)(4-(pyridin-4-yl)piperazin-1-yl)methanone]"
7,1 to 10 µM,"O=C(C1Cc2cc(Cl)cc(-c3ccnc4[nH]ccc34)c2O1)N1CCC(c2ccncc2)CC1 (stereo not drawn) [(5-chloro-7-(1H-pyrrolo[2,3-b]pyridin-4-yl)-2,3-dihydrobenzofuran-2-yl)(4-(pyridin-4-yl)piperidin-1-yl)methanone]"
8,1 to 10 µM,"O=C(C1Cc2cc(Cl)cc(-c3ccnc4[nH]ccc34)c2O1)N1CCN(c2ccncn2)CC1 (stereo not drawn) [(5-chloro-7-(1H-pyrrolo[2,3-b]pyridin-4-yl)-2,3-dihydrobenzofuran-2-yl)(4-(pyrimidin-4-yl)piperazin-1-yl)methanone]"
9,1 to 10 µM,"O=C(C1Cc2cc(Cl)cc(-c3ccnc4[nH]ccc34)c2O1)N1CCC(O)(c2ccccn2)CC1 (stereo not drawn) [(5-chloro-7-(1H-pyrrolo[2,3-b]pyridin-4-yl)-2,3-dihydrobenzofuran-2-yl)(4-hydroxy-4-(pyridin-2-yl)piperidin-1-yl)methanone]"
10,< 1 µM,"O=C(C1Cc2cc(Cl)cc(-c3ccnc4[nH]ccc34)c2O1)N1CCC(O)(c2cccnc2)CC1 (stereo not drawn) [(5-chloro-7-(1H-pyrrolo[2,3-b]pyridin-4-yl)-2,3-dihydrobenzofuran-2-yl)(4-hydroxy-4-(pyridin-3-yl)piperidin-1-yl)methanone]"
11,10 to 30 µM,"O=C(C1Cc2cc(Cl)cc(-c3ccnc4[nH]ccc34)c2O1)N1CCC(O)(Cc2cccnc2)CC1 (stereo not drawn) [(5-chloro-7-(1H-pyrrolo[2,3-b]pyridin-4-yl)-2,3-dihydrobenzofuran-2-yl)(4-hydroxy-4-(pyridin-3-ylmethyl)piperidin-1-yl)methanone]"
12,< 1 µM,"O=C(C1Cc2cc(Cl)cc(-c3ccnc4[nH]ccc34)c2O1)N1CCC(O)(c2ccncc2)CC1 (stereo not drawn) [(5-chloro-7-(1H-pyrrolo[2,3-b]pyridin-4-yl)-2,3-dihydrobenzofuran-2-yl)(4-hydroxy-4-(pyridin-4-yl)piperidin-1-yl)methanone]"
13,1 to 10 µM,"O=C(C1Cc2cc(Cl)cc(-c3ccnc4[nH]ccc34)c2O1)N1CCC(O)(c2cccc3ncccc23)CC1 (stereo not drawn) [(5-chloro-7-(1H-pyrrolo[2,3-b]pyridin-4-yl)-2,3-dihydrobenzofuran-2-yl)(4-hydroxy-4-(quinolin-5-yl)piperidin-1-yl)methanone]"
14,1 to 10 µM,"O=C(C1Cc2cc(Cl)cc(-c3ccnc4[nH]ccc34)c2O1)N1CCC(O)(c2ccccc2)CC1 (stereo not drawn) [(5-chloro-7-(1H-pyrrolo[2,3-b]pyridin-4-yl)-2,3-dihydrobenzofuran-2-yl)(4-hydroxy-4-phenylpiperidin-1-yl)methanone]"
15,1 to 10 µM,"O=C(C1Cc2cc(Cl)cc(-c3ccnc4[nH]ccc34)c2O1)N1CCC(N2CCOCC2)CC1 (stereo not drawn) [(5-chloro-7-(1H-pyrrolo[2,3-b]pyridin-4-yl)-2,3-dihydrobenzofuran-2-yl)(4-morpholinopiperidin-1-yl)methanone]"
16,10 to 30 µM,"C[C@@H]1CNCCN1C(=O)C1Cc2cc(Cl)cc(-c3ccnc4[nH]ccc34)c2O1 (stereo partly drawn) [(5-chloro-7-(1H-pyrrolo[2,3-b]pyridin-4-yl)-2,3-dihydrobenzofuran-2-yl)((R)-2-methylpiperazin-1-yl)methanone]"
17,1 to 10 µM,"O=C(C1Cc2cc(Cl)cc(-c3ccnc4[nH]ccc34)c2O1)N1CCN[C@@H](CO)C1 (stereo partly drawn) [(5-chloro-7-(1H-pyrrolo[2,3-b]pyridin-4-yl)-2,3-dihydrobenzofuran-2-yl)((R)-3-(hydroxymethyl)piperazin-1-yl)methanone]"
18,1 to 10 µM,"C[C@@H]1CN(C(=O)C2Cc3cc(Cl)cc(-c4ccnc5[nH]ccc45)c3O2)CCN1 (stereo partly drawn) [(5-chloro-7-(1H-pyrrolo[2,3-b]pyridin-4-yl)-2,3-dihydrobenzofuran-2-yl)((R)-3-methylpiperazin-1-yl)methanone]"

row,IC50,SMILES
1,1 to 10 µM,"C[C@H]1CNCCN1C(=O)C1Cc2cc(Cl)cc(-c3ccnc4[nH]ccc34)c2O1 (stereo partly drawn) [(5-chloro-7-(1H-pyrrolo[2,3-b]pyridin-4-yl)-2,3-dihydrobenzofuran-2-yl)((S)-2-methylpiperazin-1-yl)methanone]"
2,1 to 10 µM,"O=C(C1Cc2cc(Cl)cc(-c3ccnc4[nH]ccc34)c2O1)N1CCN[C@H](CO)C1 (stereo partly drawn) [(5-chloro-7-(1H-pyrrolo[2,3-b]pyridin-4-yl)-2,3-dihydrobenzofuran-2-yl)((S)-3-(hydroxymethyl)piperazin-1-yl)methanone]"
3,1 to 10 µM,"C[C@H]1CN(C(=O)C2Cc3cc(Cl)cc(-c4ccnc5[nH]ccc45)c3O2)CCN1 (stereo partly drawn) [(5-chloro-7-(1H-pyrrolo[2,3-b]pyridin-4-yl)-2,3-dihydrobenzofuran-2-yl)((S)-3-methylpiperazin-1-yl)methanone]"
4,< 1 µM,"O=C(C1Cc2cc(Cl)cc(-c3ccnc4[nH]ccc34)c2O1)N1CCNCC1 (stereo not drawn) [(5-chloro-7-(1H-pyrrolo[2,3-b]pyridin-4-yl)-2,3-dihydrobenzofuran-2-yl)(piperazin-1-yl)methanone]"
5,1 to 10 µM,"O=C(C1CCNCC1)C1Cc2cc(Cl)cc(-c3ccnc4[nH]ccc34)c2O1 (stereo not drawn) [(5-chloro-7-(1H-pyrrolo[2,3-b]pyridin-4-yl)-2,3-dihydrobenzofuran-2-yl)(piperidin-4-yl)methanone]"
6,1 to 10 µM,"O=C(C1Cc2cc(Cl)cc(-c3ccnc4cc[nH]c34)c2O1)N1CCNCC1 (stereo not drawn) [(5-chloro-7-(1H-pyrrolo[3,2-b]pyridin-7-yl)-2,3-dihydrobenzofuran-2-yl)(piperazin-1-yl)methanone]"
7,1 to 10 µM,"O=C(C1Cc2cc(Cl)cc(-c3ccnc(NCCO)c3)c2O1)N1CCNCC1 (stereo not drawn) [(5-chloro-7-(2-((2-hydroxyethyl)amino)pyridin-4-yl)-2,3-dihydrobenzofuran-2-yl)(piperazin-1-yl)methanone]"
8,1 to 10 µM,"C[C@H](O)c1cc2c(-c3cc(Cl)cc4c3OC(C(=O)N3CCNCC3)C4)ccnc2[nH]1 (stereo partly drawn) [(5-chloro-7-(2-((S)-1-hydroxyethyl)-1H-pyrrolo[2,3-b]pyridin-4-yl)-2,3-dihydrobenzofuran-2-yl)(piperazin-1-yl)methanone]"
9,< 1 µM,"O=C(C1Cc2cc(Cl)cc(-c3ccnc4[nH]c(CO)cc34)c2O1)N1CCNCC1 (stereo not drawn) [(5-chloro-7-(2-(hydroxymethyl)-1H-pyrrolo[2,3-b]pyridin-4-yl)-2,3-dihydrobenzofuran-2-yl)(piperazin-1-yl)methanone]"
10,1 to 10 µM,"O=C(C1Cc2cc(Cl)cc(-c3ccnc4[nH]c(Cc5cc6ccccc6cn5)cc34)c2O1)N1CCNCC1 (stereo not drawn) [(5-chloro-7-(2-(isoquinolin-3-ylmethyl)-1H-pyrrolo[2,3-b]pyridin-4-yl)-2,3-dihydrobenzofuran-2-yl)(piperazin-1-yl)methanone]"
11,10 to 30 µM,"O=C(C1Cc2cc(Cl)cc(-c3ccnc(Nc4ccccc4)c3)c2O1)N1CCNCC1 (stereo not drawn) [(5-chloro-7-(2-(phenylamino)pyridin-4-yl)-2,3-dihydrobenzofuran-2-yl)(piperazin-1-yl)methanone]"
12,1 to 10 µM,"O=C(C1Cc2cc(Cl)cc(-c3ccnc4[nH]c(Cc5cccnc5)cc34)c2O1)N1CCNCC1 (stereo not drawn) [(5-chloro-7-(2-(pyridin-3-ylmethyl)-1H-pyrrolo[2,3-b]pyridin-4-yl)-2,3-dihydrobenzofuran-2-yl)(piperazin-1-yl)methanone]"
13,10 to 30 µM,"O=C(C1Cc2cc(Cl)cc(-c3ccnc4[nH]c(C5CC5)cc34)c2O1)N1CCNCC1 (stereo not drawn) [(5-chloro-7-(2-cyclopropyl-1H-pyrrolo[2,3-b]pyridin-4-yl)-2,3-dihydrobenzofuran-2-yl)(piperazin-1-yl)methanone]"
14,1 to 10 µM,"O=C(C1Cc2cc(Cl)cc(-c3ccnc(O)c3)c2O1)N1CCNCC1 (stereo not drawn) [(5-chloro-7-(2-hydroxypyridin-4-yl)-2,3-dihydrobenzofuran-2-yl)(piperazin-1-yl)methanone]"
15,10 to 30 µM,"O=C(C1Cc2cc(Cl)cc(-c3ccnc4[nH]c(-c5ccccc5)cc34)c2O1)N1CCNCC1 (stereo not drawn) [(5-chloro-7-(2-phenyl-1H-pyrrolo[2,3-b]pyridin-4-yl)-2,3-dihydrobenzofuran-2-yl)(piperazin-1-yl)methanone]"
16,1 to 10 µM,"Cc1c[nH]c2nccc(-c3cc(Cl)cc4c3OC(C(=O)N3CCNCC3)C4)c12 (stereo not drawn) [(5-chloro-7-(3-methyl-1H-pyrrolo[2,3-b]pyridin-4-yl)-2,3-dihydrobenzofuran-2-yl)(piperazin-1-yl)methanone]"
17,< 1 µM,"O=C(C1Cc2cc(Cl)cc(-c3ccnc4c3CCCC4)c2O1)N1CCNCC1 (stereo not drawn) [(5-chloro-7-(5,6,7,8-tetrahydroquinolin-4-yl)-2,3-dihydrobenzofuran-2-yl)(piperazin-1-yl)methanone]"
18,< 1 µM,"O=C(C1Cc2cc(Cl)cc(-c3ccnc4c3CCC4)c2O1)N1CCNCC1 (stereo not drawn) [(5-chloro-7-(6,7-dihydro-5H-cyclopenta[b]pyridin-4-yl)-2,3-dihydrobenzofuran-2-yl)(piperazin-1-yl)methanone]"
